Assays:
Assay type in all cases: in vivo
[1] = tested on: waterhemp (common waterhemp, Amaranthus rudis); assay: Test E pre-/postemergence: waterhemp; conditions: scale 0 to 100
Source text: (§1) Seeds of plant species selected from corn (Zea mays), soybean (Glycine max), velvetleaf (Abutilon theophrasti), lambsquarters (Chenopodium album), poinsettia, wild (wild poinsettia, Euphorbia heterophylla), pigweed, palmer (palmer pigweed, Amaranthus palmeri), waterhemp (common waterhemp, Amaranthus rudis), smartweed (ladysthumb smartweed, Polygonum persicaria), surinam grass (Brachiaria decumbens), crabgrass, large (large crabgrass, Digitaria sanguinalis), crabgrass, Brazil (Brazilian crabgrass, Digitaria horizontalis), panicum, fall (fall panicum, Panicum dichotomiflorum), foxtail, giant (giant foxtail, Setaria faberii), foxtail, green (green foxtail, Setaria viridis), goosegrass (Eleusine indica), johnsongrass (Sorghum halepense), ragweed (common ragweed, Ambrosia elation), barnyardgrass (Echinochloa crus-galli), sandbur (southern sandbur, Cenchrus echinatus), arrowleaf sida (Sida rhombifolia), ryegrass, Italian (Italian ryegrass, Lolium multiflorum), dayflower, (VA) (Virginia dayflower, Commelina virginica), field bindweed (Convolvulus arvensis), cocklebur (common cocklebur, Xanthium strumarium), morningglory (Ipomoea coccinea), nightshade (eastern black nightshade, Solanum ptycanthum), kochia (Kochia scoparia), nutsedge, yellow (yellow nutsedge, Cyperus esculentus) and beggarticks (hairy beggarticks, Bidens pilosa) were planted into a silt loam soil and treated preemergence with test chemicals formulated in a non-phytotoxic solvent mixture which included a surfactant. At the same time, plants selected from these crop and weed species were planted in pots containing a growing medium comprising spaghnum peat moss, vermiculite, wetting agent and starter nutrients and treated with postemergence applications of some of the test chemicals formulated in the same manner. Plants ranged in height from 2 to 18 cm for postemergence treatments (1- to 4-leaf stage).
(§2) Treated plants and controls were maintained in a greenhouse for 14 to 21 days, after which time all species were compared to controls and visually evaluated. Plant response ratings, summarized in Table E, are based on a scale of 0 to 100 where 0 is no effect and 100 is complete control. A dash (-) response means no test result.

[2] = tested on: crabgrass, Brazil (Brazilian crabgrass, Digitaria horizontalis); assay: Test E pre-/postemergence: crabgrass, Brazil; conditions: scale 0 to 100
Source text: as §1, §2

[3] = tested on: panicum, fall (fall panicum Panicum dichotomiflorum); assay: Test F pre-/postemergence: panicum, fall; conditions: Postemergence, scale 0 to 100
Source text: (§3) Seeds of plant species selected from corn (Zea mays), soybean (Glycine max), velvetleaf (Abutilon theophrasti), lambsquarters (Chenopodium album), poinsettia, wild (wild poinsettia, Euphorbia heterophylla), pigweed, palmer (palmer pigweed, Amaranthus palmeri), waterhemp (common waterhemp, Amaranthus rudis), surinam grass (Brachiaria decumbens), crabgrass, Brazil (Brazilian crabgrass, Digitaria horizontalis), panicum, fall (fall panicum Panicum dichotomiflorum), crabgrass, large (large crabgrass, Digitaria sanguinalis), foxtail, giant (giant foxtail, Setaria faberii), foxtail, green (green foxtail Setaria viridis), goosegrass (Eleusine indica), ragweed (common ragweed, Ambrosia elatior), barnyardgrass (Echinochloa crus-galli), sandbur (southern sandbur, Cenchrus echinatus), arrowleaf sida (Sida rhombifolia), ryegrass, Italian (Italian ryegrass, Lolium multiflorum), dayflower, VA (Virginia (VA) dayflower, Commelina virginica), field bindweed (Convolvulus arvensis), cocklebur (common cocklebur, Xanthium strumarium), morningglory (Ipomoea coccinea), nightshade (eastern black nightshade, Solanum ptycanthum), kochia (Kochia scoparia), nutsedge, yellow (yellow nutsedge, Cyperus esculentus), johnsongrass (Sorghum halepense), smartweed (ladysthumb smartweed, Polygonum persicaria), and beggarticks (hairy beggarticks, Bidens pilosa), were planted into a silt loam soil and treated preemergence with test chemicals formulated in a non-phytotoxic solvent mixture which included a surfactant. At the same time, plants selected from these crop and weed species and also pigweed (Amaranthus retroflexus), waterhemp_RES1 (ALS/Triazine resistant common waterhemp, Amaranthus rudis) and waterhemp_RES2 (ALS/HPPD resistant common waterhemp, Amaranthus rudis) were planted in pots containing a planting medium comprising spaghnum peat moss, vermiculite, wetting agent and starter nutrients treated with postemergence applications of some of the test chemicals formulated in the same manner. Plants ranged in height from 2 to 18 cm for postemergence treatments (1- to 4-leaf stage).
as §2

[4] = tested on: field bindweed (Convolvulus arvensis); assay: Test F pre-/postemergence: field bindweed; conditions: Postemergence, scale 0 to 100
Source text: as §3, §2

SMILES | Plant response rating: Waterhemp ([1]; Preemergence, 8 g ai/ha) | Plant response rating: Waterhemp ([1]; Preemergence, 16 g ai/ha) | Plant response rating: Waterhemp ([1]; Preemergence, 31 g ai/ha) | Plant response rating: Waterhemp ([1]; Preemergence, 62 g ai/ha) | Plant response rating: Waterhemp ([1]; Preemergence, 125 g ai/ha) | Plant response rating: Crabgrass, Brazil ([2]; Preemergence, 8 g ai/ha) | Plant response rating: Crabgrass, Brazil ([2]; Preemergence, 16 g ai/ha) | Plant response rating: Crabgrass, Brazil ([2]; Preemergence, 31 g ai/ha) | Plant response rating: Crabgrass, Brazil ([2]; Preemergence, 62 g ai/ha) | Plant response rating: Crabgrass, Brazil ([2]; Preemergence, 125 g ai/ha) | also measured
Cc1nn(-c2ccc(F)cc2)nc1Cc1ccnc(C(F)(F)F)c1 [Compound 16, 4-[[2-(4-fluorophenyl)-5-methyl-2H-1,2,3-triazol-4-yl]methyl]-2-(trifluoromethyl)pyridine] | 60 | 70 | 100 | 100 | 100 | 30 | 70 | 95 | 100 | 100 | 
Cc1nn(-c2ccc(C(F)(F)F)cc2)nc1Cc1ccnc(C(F)(F)F)c1 [Compound 47, 4-[[5-methyl-2-[4-(trifluoromethyl)phenyl]-2H-1,2,3-triazol-4-yl]methyl]-2-(trifluoromethyl)pyridine] |  | 100 | 100 | 100 | 100 |  | 35 | 80 | 100 | 100 | Plant response rating: Waterhemp ([1]; Postemergence, 250 g ai/ha): 95; Plant response rating: Waterhemp ([1]; Postemergence, 16 g ai/ha): 60; Plant response rating: Waterhemp ([1]; Postemergence, 31 g ai/ha): 70; Plant response rating: Waterhemp ([1]; Postemergence, 62 g ai/ha): 80; Plant response rating: Waterhemp ([1]; Postemergence, 125 g ai/ha): 85; Plant response rating: Waterhemp ([1]; Preemergence, 250 g ai/ha): 100; Plant response rating: Crabgrass, Brazil ([2]; Postemergence, 250 g ai/ha): 50; Plant response rating: Crabgrass, Brazil ([2]; Postemergence, 16 g ai/ha): 20; Plant response rating: Crabgrass, Brazil ([2]; Postemergence, 31 g ai/ha): 30; Plant response rating: Crabgrass, Brazil ([2]; Postemergence, 62 g ai/ha): 40; Plant response rating: Crabgrass, Brazil ([2]; Postemergence, 125 g ai/ha): 40; Plant response rating: Crabgrass, Brazil ([2]; Preemergence, 250 g ai/ha): 100
Cc1nn(-c2ccc(F)cc2)nc1Oc1ccnc(C(F)(F)F)c1 [Compound 129, 4-[[2-(4-fluorophenyl)-5-methyl-2H-1,2,3-triazol-4-yl]oxy]-2-(trifluoromethyl)pyridine] | 20 | 35 | 80 | 100 | 100 | 10 | 15 | 60 | 95 | 100 | 
Cc1nn(-c2ccc(F)c(F)c2)nc1Oc1ccnc(C(F)(F)F)c1 [Compound 145] |  |  |  |  |  |  |  |  |  |  | Plant response rating, Panicum, Fall ([3]; 8 g ai/ha): 10; Plant response rating, Panicum, Fall ([3]; 16 g ai/ha): 25; Plant response rating, Panicum, Fall ([3]; 31 g ai/ha): 40; Plant response rating, Panicum, Fall ([3]; 62 g ai/ha): 40; Plant response rating, Panicum, Fall ([3]; 125 g ai/ha): 40; Plant response rating, Field Bindweed ([4]; 8 g ai/ha): 50; Plant response rating, Field Bindweed ([4]; 16 g ai/ha): 60; Plant response rating, Field Bindweed ([4]; 62 g ai/ha): 70; Plant response rating, Field Bindweed ([4]; 125 g ai/ha): 75

Source: patent publication US9302999B2, “Substituted triazoles as herbicides” (E. I. DU PONT DE NEMOURS AND COMPANY, priority 2012, dated 2016)
